# US6284785A, “1-arenesulfonyl-2-aryl-pyrrolidine and pyridine derivatives” (Hoffmann- La Roche Inc., priority 1999, dated 2001)
# Target: T1, rat mGlu 1a receptor (Rattus norvegicus, UniProt P23385)
# T1 construct: expressed in transfected cells; host or cells: EBNA cells (transient transfection)
# Assay: [Ca2+]i measurements (FLIPR, Fluo-3 AM) on mGlu 1a transfected EBNA cells; agonist or antagonist (against 10 μM glutamate)
# Type: cell-based
# Conditions: for Remarks (agonist / antagonist): table of substituents of the Examples, column Remarks; for agonist/antagonist: activity-data table; for EC50: agonist, activation of mGlu 1a in EBNA cells, read-out: IC50 (compounds marked agonist); for IC50: antagonist, tested against 10 μM glutamate as agonist, read-out: IC50 (compounds marked antagonist)
# Experimental: cDNA encoding rat mGlu 1a receptor obtained from Prof. Nakanishi (Kyoto, Japan) was transiently tranfected into EBNA cells using a procedure described by Schlaeger et. al, New Dev. New Appl. Anim Cell Techn., Proc. ESACT Meet., 15th (1998), 105-112 and 117-120. [Ca^2+ ]i measurements were performed on mGlu 1a transfected EBNA cells after incubation of the cells with Fluo-3 AM (0.5 μM final concentration) for 1hour at 37° C. followed by 4 washes with assay buffer (DMEM supplemented with Hank's salt and 20 mM HEPES. [Ca^2+ ]i measurements were done using a fluorometric imaging plate reader (FLIPR, Molecular Devices Corporation, La Jolla, Calif. USA). When compounds were evaluated as antagonists they were tested against 10 μM glutamate as agonist.
# The inhibition (antagonists) or activation (agonists) curves were fitted with a four parameter logistic equation giving EC50, IC50, and Hill coefficient using the iterative non linear curve fitting software Origin (Microcal Software Inc., Northampton, Mass., USA).
# T1 sequence (P23385 19-1199): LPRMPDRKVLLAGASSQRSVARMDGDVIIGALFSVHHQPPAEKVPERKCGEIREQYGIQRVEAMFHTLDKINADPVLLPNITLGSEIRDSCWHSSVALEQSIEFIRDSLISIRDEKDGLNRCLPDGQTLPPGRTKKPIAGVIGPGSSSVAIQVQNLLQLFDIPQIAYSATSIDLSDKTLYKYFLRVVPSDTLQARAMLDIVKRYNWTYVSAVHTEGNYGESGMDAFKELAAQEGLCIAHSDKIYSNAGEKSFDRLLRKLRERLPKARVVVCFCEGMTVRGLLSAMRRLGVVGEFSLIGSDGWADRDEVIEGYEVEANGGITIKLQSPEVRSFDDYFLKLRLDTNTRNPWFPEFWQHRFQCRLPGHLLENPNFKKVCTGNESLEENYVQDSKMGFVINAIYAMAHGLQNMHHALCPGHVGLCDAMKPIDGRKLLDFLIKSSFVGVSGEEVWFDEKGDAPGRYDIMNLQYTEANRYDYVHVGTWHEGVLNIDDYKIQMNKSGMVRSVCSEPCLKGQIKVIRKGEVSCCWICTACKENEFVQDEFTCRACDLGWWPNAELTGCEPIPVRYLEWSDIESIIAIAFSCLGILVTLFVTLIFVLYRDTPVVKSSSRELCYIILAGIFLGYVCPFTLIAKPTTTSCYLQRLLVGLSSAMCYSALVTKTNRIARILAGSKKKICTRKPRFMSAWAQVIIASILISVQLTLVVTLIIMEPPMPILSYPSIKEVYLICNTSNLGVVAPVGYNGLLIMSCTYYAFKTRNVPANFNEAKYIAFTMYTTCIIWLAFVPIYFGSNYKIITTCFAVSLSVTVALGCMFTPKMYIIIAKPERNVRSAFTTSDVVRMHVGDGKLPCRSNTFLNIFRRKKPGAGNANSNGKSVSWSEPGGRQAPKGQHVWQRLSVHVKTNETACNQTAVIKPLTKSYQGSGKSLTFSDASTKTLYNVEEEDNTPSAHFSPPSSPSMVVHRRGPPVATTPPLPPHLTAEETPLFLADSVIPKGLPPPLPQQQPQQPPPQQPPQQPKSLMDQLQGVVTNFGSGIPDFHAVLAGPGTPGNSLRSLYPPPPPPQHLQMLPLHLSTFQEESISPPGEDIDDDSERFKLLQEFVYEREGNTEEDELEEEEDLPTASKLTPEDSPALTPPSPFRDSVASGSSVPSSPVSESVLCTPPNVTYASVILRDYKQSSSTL
Remarks (agonist / antagonist),agonistic / antagonistic activity to the mGlu receptor,SMILES,also measured
Agonist,,"Cc1ccc(S(=O)(=O)N2CCCC2c2cccc(F)c2)cc1 (racemic) [Example 1, (RS)-2-(3-Fluoro-phenyl)-1-(toluene-4-sulfonyl)-pyrrolidine]",
Agonist,,"O=S(=O)(c1ccc(Cl)cc1)N1CCCC1c1cccc(F)c1 (racemic) [Example 2, (RS)-1-(4-Chloro-benzenesulfonyl)-2-(3-fluoro-phenyl)-pyrrolidine]",
Agonist,,"Cc1ccc(S(=O)(=O)N2CCCC2c2ccncc2)cc1 (racemic) [Example 3, (RS)-4-[1-(Toluene-4-sulfonyl)-pyrrolidin-2-yl]-pyridine]",agonist/antagonist: agonist; EC50: 8220 nM
Agonist,,"Cc1ccc(S(=O)(=O)N2CCCC2c2ccccc2)cc1 (racemic) [Example 4, (RS)-2-Phenyl-1-(toluene-4-sulfonyl)-pyrrolidine]",agonist/antagonist: agonist; EC50: 230 nM
Agonist,agonistic activty,"O=S(=O)(c1ccc(Cl)cc1)N1CCCC1c1ccccc1 (racemic) [Example 6, (RS)-1-(4-Chloro-benzenesulfonyl)-2-phenyl-pyrrolidine]",
Antagonist,,"O=S(=O)(c1ccccc1)N1CCCC1c1ccc(F)cc1 (racemic) [Example 7, (RS)-1-Benzenesulfonyl-2-(4-fluoro-phenyl)-pyrrolidine]",agonist/antagonist: antagonist; IC50: 8000 nM
Agonist,agonistic activty,"Cc1ccc(S(=O)(=O)N2CCCC2c2ccc(Cl)cc2)cc1 (racemic) [Example 8, (RS)-2-(4-Chloro-phenyl)-1-(toluene-4-sulfonyl)-pyrrolidine]",
Agonist,agonistic activty,"O=S(=O)(c1ccc(Cl)cc1)N1CCCC1c1ccc(Cl)cc1 (racemic) [Example 9, (RS)-1-(4-Chloro-benzenesulfonyl)-2-(4-chloro-phenyl)-pyrrolidine]",
Antagonist,,"COc1ccc(S(=O)(=O)N2CCCC2c2ccc(F)cc2)cc1 (racemic) [Example 10, (RS)-2-(4-Fluoro-phenyl)-1-(4-methoxy-benzenesulfonyl)-pyrrolidine]",
Agonist,,"O=S(=O)(c1ccc(Cl)cc1)N1CCCC1c1ccc(F)cc1 (racemic) [Example 11, (RS)-1-(4-Chloro-benzenesulfonyl)-2-(4-fluorophenyl)-pyrrolidine]",
Agonist,,"Cc1ccc(S(=O)(=O)N2CCCC2c2ccc(F)cc2)cc1 (racemic) [Example 12, (RS)-2-(4-Fluoro-phenyl)-1-(toluene-4-sulfonyl)-pyrrolidine]",
Agonist,,"O=S(=O)(c1ccccc1)N1CCCC1c1ccc(Cl)cc1 (racemic) [Example 13, (RS)-1-Benzenesulfonyl-2-(4-chloro-phenyl)-pyrrolidine]",
Agonist,,"O=S(=O)(c1ccc(Cl)cc1)N1CCCC1c1ccncc1 (racemic) [Example 14, (RS)-4-1-(4-Chloro-benzenesulfonyl)-pyrrolidine-pyridine]",
Agonist,agonistic activty,"O=S(=O)(c1ccc(F)cc1)N1CCCC1c1ccc(F)cc1 (racemic) [Example 16, (RS)-1-(4-Fluoro-benzenesulfonyl)-2-(4-fluoro-phenyl)-pyrrolidine]",
Antagonist,,"Cc1ccccc1S(=O)(=O)N1CCCC1c1ccc(F)cc1 (racemic) [Example 18, (RS)-2-(4-Fluoro-phenyl)-1-(toluene-2-sulfonyl)-pyrrolidine]",agonist/antagonist: antagonist; IC50: 1370 nM
Agonist,agonistic activty,"Cc1ccc(C2CCCN2S(=O)(=O)c2ccc(C)cc2)cc1 (racemic) [Example 19, (RS)-1-(Toluene-4-sulfonyl)-2-p-tolyl-pyrrolidine]",
Antagonist,,"Cc1ccc(C2CCCN2S(=O)(=O)c2ccc(Cl)cc2)cc1 (racemic) [Example 20, (RS)-1-(4-Chloro-benzenesulfonyl)-2-p-tolyl-pyrrolidine]",
Agonist,agonistic activty,"CCc1ccc(S(=O)(=O)N2CCCC2c2ccc(F)cc2)cc1 (racemic) [Example 21, (RS)-1-(4-Ethyl-benzenesulfonyl)-2-(4-fluoro-Rhenyl)-pyrrolidine]",

Remarks (agonist / antagonist),agonistic / antagonistic activity to the mGlu receptor,SMILES,also measured
Antagonist,,"CC(C)c1ccc(S(=O)(=O)N2CCCC2c2ccc(F)cc2)cc1 (racemic) [Example 22, (RS)-2-(4-Fluoro-phenyl)-1-(4-isopropyl-benzenesulfonyl)-pyrrolidine]",
Antagonist,,"Cc1ccc(C2CCCN2S(=O)(=O)c2ccc(F)cc2)cc1 (racemic) [Example 23, (RS)-1-(4-Fluoro-benzenesulfonyl)-2-p-tolyl-pyrrolidine]",
Antagonist,,"COc1ccc(C2CCCN2S(=O)(=O)c2ccc(Cl)cc2)cc1 (racemic) [Example 24, (RS)-1-(4-Chloro-benzenesulfonyl)-2-(4-methoxyl-phenyl)-pyrrolidine]",
Agonist,agonistic activty,"COc1ccc(C2CCCN2S(=O)(=O)c2ccc(C)cc2)cc1 (racemic) [Example 25, (RS)-2-(4-Methoxy-phenyl)-1-(toluene-4-sulfonyl)-pyrrolidine]",
Agonist,agonistic activty,"O=S(=O)(c1ccc(Br)cc1)N1CCCC1c1ccc(F)cc1 (racemic) [Example 26, (RS)-1-(4-Bromo-benzenesulfonyl)-2-(4-fluoro-phenyl)-pyrrolidine]",
Antagonist,,"CC(=O)c1ccc(S(=O)(=O)N2CCCC2c2ccc(F)cc2)cc1 (racemic) [Example 27, (RS)-1-{4-[2-(4-Fluoro-phenyl)-pyrrolidine-1-sulfonyl]-phenyl}-ethanone]",
Agonist,,"Cc1ccc(S(=O)(=O)N2CCCC2c2cccc(C)c2)cc1 (racemic) [Example 28, (RS)-1-(Toluene-4-sulfonyl)-2-m-tolyl-pyrrolidine]",
Agonist,agonistic activty,"Cc1cccc(C2CCCN2S(=O)(=O)c2ccc(Cl)cc2)c1 (racemic) [Example 29, (RS)-1-(4-Chloro-benzenesulfonyl)-2-m-tolyl-pyrrolidine]",
Antagonist,,"Cc1cccc(C2CCCN2S(=O)(=O)c2ccc(F)cc2)c1 (racemic) [Example 30, (RS)-1-(4-Fluoro-benzenesulfonyl)-2-m-tolyl-pyrrolidine]",
Agonist,agonistic activty,"Cc1ccc(S(=O)(=O)N2CCCC2c2cccc(Cl)c2)cc1 (racemic) [Example 31, (RS)-2-(3-Chloro-phenyl)-1-(toluene-4-sulfonyl)-pyrrolidine]",
Antagonist,,"O=S(=O)(c1ccc(Cl)cc1)N1CCCC1c1cccc(Cl)c1 (racemic) [Example 32, (RS)-1-(4-Chloro-benzenesulfonyl)-2-(3-chloro-phenyl)-pyrrolidine]",
Antagonist,,"N#Cc1ccc(S(=O)(=O)N2CCCC2c2ccc(F)cc2)cc1 (racemic) [Example 33, (RS)-2-(4-Fluoro-phenyl)-1-(4-cyano-benzenesulfonyl)-pyrrolidine]",
Antagonist,,"COc1cccc(C2CCCN2S(=O)(=O)c2ccc(Cl)cc2)c1 (racemic) [Example 34, (RS)-1-(4-Chloro-benzenesulfonyl)-2-(3-methoxy-phenyl)-pyrrolidine]",
Antagonist,,"O=S(=O)(c1ccc(F)cc1)N1CCCC1c1cccs1 (racemic) [Example 35, (RS)-1-(4-Fluoro-benzenesulfonyl)-2-thien-2-yl-pyrrolidine]",
Antagonist,,"O=S(=O)(c1ccc(Cl)cc1)N1CCCC1c1cccs1 (racemic) [Example 36, (RS)-1-(4-Chloro-benzenesulfonyl)-2-thien-2-yl-pyrrolidine]",agonist/antagonist: antagonist; IC50: 560 nM
Antagonist,,"Cc1ccc(S(=O)(=O)N2CCCC2c2cccs2)cc1 (racemic) [Example 37, (RS)-2-Thien-2-yl-1-(toluene-4-sulfonyl)-pyrrolidine]",
Agonist,agonistic activty,"Cc1ccc(S(=O)(=O)N2CCCC2c2ccc(F)c(F)c2)cc1 (racemic) [Example 38, (RS)-2-(3,4-Difluoro-phenyl)-1-(toluene-4-sulfonyl)-pyrrolidine]",
Agonist,agonistic activty,"O=S(=O)(c1ccc(Cl)cc1)N1CCCC1c1ccc(F)c(F)c1 (racemic) [Example 39, (RS)-1-(4-Chloro-benzenesulfonyl)-2-(3,4-difluoro-phenyl)-pyrrolidine]",
